From patent US20100184809A1, “Heterocyclic FXR Binding Compounds” (PHENEX PHARMACEUTICALS AG, priority 2006, published 2010)

Assays:
[1] = Human microsomal stability assay; format: in vitro ADME; conditions: liver microsomes, 0.5 mg microsomal protein/ml, 10 μM compound, 37° C., read-out: Human liver microsome clearance
Description: Compound stability towards human liver microsomes was determined as follows: Human liver microsomal suspension (1 ml) prepared in reaction buffer at a concentration of 0.5 mg microsomal protein/ml was preincubated for 3 min at 37° C. with a NADPH-generating system (10 mM glucose 6-phosphate, 1 mM NADP+, and 1 unit/ml yeast glucose-6-phosphate dehydrogenase). The final compounds concentration is 10 μM. Boiled microsomes (5 min) served as a control. Samples (50 μl) were then taken after 0, 5, 15, 30, 45, 120 min, into 200 μl acetonitrile, centrifuged for 15 min at 8000×g to remove the protein pellet. Samples were analyzed for parent compound by HPLC. Method development: All samples for metabolic stability experiments were analyzed by HPLC. Only parent compounds were analyzed. Data analysis: The percentages of the parent compounds remaining was defined as the ratio of the parent compounds peak area at a specific point and the peak area at the first time point multiplied by 100%. The metabolic stability was evaluated by plotting the natural logarithm of the percentage parent compounds remaining versus time and performing linear regression and finally reported as clearance [μl/min/mg protein] which is reversed proportional to compound stability. Applying this protocol, Microsomal stability of examples and reference compounds was determined. (Table 7)

[2] = Rat hepatocyte stability assay; format: in vitro ADME; conditions: hepatocytes, 37° C., 60 minute, read-out: Rat hepatocyte clearance
Description: Compound stability towards rat hepatocytes was determined as follows: The hepatocytes are incubated with the test compound at 37° C. Samples are removed at the appropriate time points into methanol to terminate the reaction. Following centrifugation, the supernatant is analysed by LC-MS/MS. The disappearance of test compound is monitored over a 60 minute time period. The In peak area ratio (compound peak area/internal standard peak area) is plotted against time and the gradient of the line determined. Finally, half life t1/2 and Intrinsic clearance CLint is computed by the following equations: elimination rate konstant (k)=−gradient; t1/2 (min)=0.693/k; V (μl/10^6 cells)=volume of incubation (μl)/number of cells (*10^6); CLint (μl/min/10^6cells protein)=V*0.693/t1/2.

[3] = molecular target: T1, human FXRalpha ligand binding domain (LBD) (Homo sapiens, UniProt Q96RI1); assay: FRET activity assay (ligand mediated cofactor peptide interaction, LANCE); format: biochemical; conditions: GST-FXR-LBD / biotinylated SRC-1 peptide (676-700)
T1 construct: made in house; host or cells: E. coli BL21(DE3), vector pDEST15
T1 sequence (Q96RI1 187-472 isoform Q96RI1-2): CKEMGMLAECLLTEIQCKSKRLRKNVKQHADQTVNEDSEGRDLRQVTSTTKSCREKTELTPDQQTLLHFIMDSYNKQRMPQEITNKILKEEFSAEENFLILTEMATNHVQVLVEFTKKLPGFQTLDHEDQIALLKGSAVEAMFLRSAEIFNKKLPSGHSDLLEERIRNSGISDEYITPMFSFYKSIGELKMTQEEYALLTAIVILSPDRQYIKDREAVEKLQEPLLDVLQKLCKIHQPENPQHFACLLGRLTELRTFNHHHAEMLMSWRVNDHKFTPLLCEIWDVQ
Outline: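 GST-tagged human FXRα LBD (aa 187-472) from E. coli, with biotinylated SRC-1 peptide 676-700 (200-600 nM), Eu anti-GST and streptavidin-APC in Tris pH 7.5 buffer, 1% DMSO. One hour at room temperature in the dark, then time-resolved FRET read as the 665/615 nm ratio.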

CC(C)c1onc(-c2c(Cl)cccc2Cl)c1COc1ccc(/C=C/c2cccc(C(=O)O)c2)c(Cl)c1 [Compound B, reference compound]
microsomal CLint at 10 μM [1]: 100 µL/min/mg | hepatocyte CLint [2]: 45 µL/min/1e6 cells

CC(C)c1onc(-c2c(Cl)cccc2Cl)c1COc1ccc(N(C)Cc2ccc(C(=O)O)cc2)c(C(F)(F)F)n1 [Example 28, 4(((6-((3-(2,6-Dichlorophenyl)-5-isopropylisoxazol-4-yl)methoxy)-2-(trifluoromethyl)pyridin-3-yl)(methyl)amino)methyl)benzoic acid]
IC50 [3]: ≤ 1 µM

CC(C)c1onc(-c2c(Cl)cccc2Cl)c1COc1ccc(N(C)C(=O)c2ccc(C(=O)O)cc2)c(C(F)(F)F)n1 [Example 7, N-{6-[3-(2,6-dichloro-phenyl)-5-isopropyl-isoxazol-4-ylmethoxy]-2-trifluoromethyl-pyridin-3-yl}-N-methyl-terephthalamic acid]
microsomal CLint at 10 μM [1]: 14 µL/min/mg | IC50 [3]: ≤ 1 µM | hepatocyte CLint [2]: 0.7 µL/min/1e6 cells

Cc1nc(OCc2c(-c3c(Cl)cccc3Cl)noc2C(C)C)ccc1N(C)S(=O)(=O)c1ccc(C(=O)O)cc1 [Example 4, 4-(N-(6-((3-(2,6-dichlorophenyl)-5-isopropylisoxazol-4-yl)methoxy)-2-methylpyridin-3-yl)—N-methylsulfamoyl)benzoic acid]
microsomal CLint at 10 μM [1]: 62 µL/min/mg | IC50 [3]: ≤ 1 µM | hepatocyte CLint [2]: 7.1 µL/min/1e6 cells
